A short description of this series: Solubility/stability of CTA-acid salts in water. It counts as physicochemical. The note with it: CTA-acid dispersed in water at 1 wt. %, dissolved by adding the base/amine; solubility checked again after 48 hrs. at room temperature. The method, then:
These new CTA-“bases” were made using the same procedure shown above (“Formation of CTA-Acid Salt(s)”) starting with CTA-acid. The stability of several amines was tested by dispersing CTA-acid in water at 1 wt. % CTA-acid, and then dissolution by adding the amine.

Structures are written as SMILES.

Turning to `CC(C)CCCCCCCCCOCCCN`, the Soluble result was “no”. For `NCCNCCO`, the Soluble entry is given as “yes”. Regarding `O=C1CCCN1CCO`, the Soluble result is on record as “no”. For `NCCOCCOCCN`, the Soluble result is given as “no”. With `NCCOCCO`, the Soluble entry was “yes”.

For the origin of these results see patent US10280101B2, “Water soluble chain transfer agents” (The Lubrizol Corporation, priority 2015, dated 2019).
